Tests used:
lambsquarters [1] = assay: Test Example 5: herbicidal effect by foliage application, plastic box (Table 20, symbol O); assay type: in vivo, lambsquarters (Chenopodium album); settings: foliage application, 320 g/ha, evaluated three weeks after application
How it was run: (§1)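 Plants sown in sterilized diluvial soil and grown 14 days in a greenhouse at 25° C to 30° C, then sprayed on the foliage with the compound's emulsion diluted in water to a predetermined herbicide amount. Injury to weeds and crops scored three weeks after application on a visual rating scale.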

barnyard grass [2] = assay: Test Example 3: herbicidal effect by foliage application, Wagner pot (Table 18, symbol H); assay type: in vivo, barnyard grass (Echinochloa crus-galli); settings: amount of applied herbicide 320 g/ha
How it was run: (§2)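 Plants were sown in alluvial soil held under 0.1–0.5 cm standing water and grown 14 days in a greenhouse at 25–30 °C. An emulsifiable formulation, water-diluted to the set dose, was then sprayed onto the foliage, and effects were scored three weeks later using previously defined criteria.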

barnyard grass [3] = assay: Test Example 5: herbicidal effect by foliage application, plastic box (Table 20, symbol H); assay type: in vivo, barnyard grass (Echinochloa crus-galli); settings: foliage application, 320 g/ha, evaluated three weeks after application
How it was run: as §1

redroot pigweed [4] = assay: Test Example 5: herbicidal effect by foliage application, plastic box (Table 20, symbol N); assay type: in vivo, redroot pigweed (Amaranthus retroflexus); settings: foliage application, 320 g/ha, evaluated three weeks after application
How it was run: as §1

southern crabgrass [5] = assay: Test Example 4: herbicidal effect by soil treatment (Table 19, symbol F); assay type: in vivo, southern crabgrass (Digitaria ciliaris); settings: amount of applied herbicide 320 g/ha
How it was run: (§3)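 Seeds were sown in sterilized diluvial soil and covered with about 1.5 cm of soil. An emulsion formulation diluted with water to a predetermined herbicide amount was sprayed evenly onto the soil surface. Plants grew in a greenhouse at 25° C. to 30° C., and the effect was scored three weeks after application using criteria from an earlier test.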

blackgrass [6] = assay: Test Example 5: herbicidal effect by foliage application, plastic box (Table 20, symbol J); assay type: in vivo, blackgrass (Alopecurus myosuroides); settings: foliage application, 320 g/ha, evaluated three weeks after application
How it was run: as §1

green foxtail [7] = assay: Test Example 4: herbicidal effect by soil treatment (Table 19, symbol G); assay type: in vivo, green foxtail (Setaria viridis); settings: amount of applied herbicide 320 g/ha
How it was run: as §3

persian speedwell [8] = assay: Test Example 4: herbicidal effect by soil treatment (Table 19, symbol R); assay type: in vivo, Persian speedwell (Veronica persica); settings: amount of applied herbicide 320 g/ha
How it was run: as §3

chickweed [9] = assay: Test Example 5: herbicidal effect by foliage application, plastic box (Table 20, symbol P); assay type: in vivo, common chickweed (Stellaria media); settings: foliage application, 320 g/ha, evaluated three weeks after application
How it was run: as §1

windgrass [10] = assay: Test Example 5: herbicidal effect by foliage application, plastic box (Table 20, symbol L); assay type: in vivo, windgrass (Apera spica-venti); settings: foliage application, 320 g/ha, evaluated three weeks after application
How it was run: as §1

redroot pigweed [11] = assay: Test Example 4: herbicidal effect by soil treatment (Table 19, symbol N); assay type: in vivo, redroot pigweed (Amaranthus retroflexus); settings: amount of applied herbicide 320 g/ha
How it was run: as §3

chickweed [12] = assay: Test Example 4: herbicidal effect by soil treatment (Table 19, symbol P); assay type: in vivo, common chickweed (Stellaria media); settings: amount of applied herbicide 320 g/ha
How it was run: as §3

velvetleaf [13] = assay: Test Example 5: herbicidal effect by foliage application, plastic box (Table 20, symbol M); assay type: in vivo, velvetleaf (Abutilon theophrasti); settings: foliage application, 320 g/ha, evaluated three weeks after application
How it was run: as §1

Italian ryegrass [14] = assay: Test Example 5: herbicidal effect by foliage application, plastic box (Table 20, symbol K); assay type: in vivo, Italian ryegrass (Lolium multiflorum); settings: foliage application, 320 g/ha, evaluated three weeks after application
How it was run: as §1

barnyard grass [15] = assay: Test Example 4: herbicidal effect by soil treatment (Table 19, symbol H); assay type: in vivo, barnyard grass (Echinochloa crus-galli); settings: amount of applied herbicide 320 g/ha
How it was run: as §3

southern crabgrass [16] = assay: Test Example 5: herbicidal effect by foliage application, plastic box (Table 20, symbol F); assay type: in vivo, southern crabgrass (Digitaria ciliaris); settings: foliage application, 320 g/ha, evaluated three weeks after application
How it was run: as §1

green foxtail [17] = assay: Test Example 5: herbicidal effect by foliage application, plastic box (Table 20, symbol G); assay type: in vivo, green foxtail (Setaria viridis); settings: foliage application, 320 g/ha, evaluated three weeks after application
How it was run: as §1

wild oat [18] = assay: Test Example 5: herbicidal effect by foliage application, plastic box (Table 20, symbol I); assay type: in vivo, wild oat (Avena fatua); settings: foliage application, 320 g/ha, evaluated three weeks after application
How it was run: as §1

velvetleaf [19] = assay: Test Example 4: herbicidal effect by soil treatment (Table 19, symbol M); assay type: in vivo, velvetleaf (Abutilon theophrasti); settings: amount of applied herbicide 320 g/ha
How it was run: as §3

lambsquarters [20] = assay: Test Example 4: herbicidal effect by soil treatment (Table 19, symbol O); assay type: in vivo, lambsquarters (Chenopodium album); settings: amount of applied herbicide 320 g/ha
How it was run: as §3

windgrass [21] = assay: Test Example 4: herbicidal effect by soil treatment (Table 19, symbol L); assay type: in vivo, windgrass (Apera spica-venti); settings: amount of applied herbicide 320 g/ha
How it was run: as §3

blackgrass [22] = assay: Test Example 4: herbicidal effect by soil treatment (Table 19, symbol J); assay type: in vivo, blackgrass (Alopecurus myosuroides); settings: amount of applied herbicide 320 g/ha
How it was run: as §3

wild oat [23] = assay: Test Example 4: herbicidal effect by soil treatment (Table 19, symbol I); assay type: in vivo, wild oat (Avena fatua); settings: amount of applied herbicide 320 g/ha
How it was run: as §3

Italian ryegrass [24] = assay: Test Example 4: herbicidal effect by soil treatment (Table 19, symbol K); assay type: in vivo, Italian ryegrass (Lolium multiflorum); settings: amount of applied herbicide 320 g/ha
How it was run: as §3

persian speedwell [25] = assay: Test Example 5: herbicidal effect by foliage application, plastic box (Table 20, symbol R); assay type: in vivo, Persian speedwell (Veronica persica); settings: foliage application, 320 g/ha, evaluated three weeks after application
How it was run: as §1

Chinese sprangletop = assay: Test Example 3: herbicidal effect by foliage application, Wagner pot (Table 18, symbol D); assay type: in vivo, chinese sprangletop (Leptochloa chinensis); settings: amount of applied herbicide 320 g/ha
How it was run: as §2

rice flat sedge = assay: Test Example 3: herbicidal effect by foliage application, Wagner pot (Table 18, symbol E); assay type: in vivo, rice flat sedge (Cyperus iria); settings: amount of applied herbicide 320 g/ha
How it was run: as §2

SMILES | herbicidal effect on O: lambsquarters (criteria 0-5) (lambsquarters [1]) | herbicidal effect on H: barnyard grass (barnyard grass [2]) | herbicidal effect on H: barnyard grass (criteria 0-5) (barnyard grass [3]) | herbicidal effect on N: redroot pigweed (criteria 0-5) (redroot pigweed [4]) | F: southern crabgrass, herbicidal effect rating (southern crabgrass [5]) | herbicidal effect on J: blackgrass (criteria 0-5) (blackgrass [6]) | G: green foxtail, herbicidal effect rating (green foxtail [7]) | R: persian speedwell, herbicidal effect rating (persian speedwell [8]) | herbicidal effect on P: chickweed (criteria 0-5) (chickweed [9]) | herbicidal effect on L: windgrass (criteria 0-5) (windgrass [10]) | N: redroot pigweed, herbicidal effect rating (redroot pigweed [11]) | P: chickweed, herbicidal effect rating (chickweed [12]) | herbicidal effect on M: velvetleaf (criteria 0-5) (velvetleaf [13]) | herbicidal effect on K: Italian ryegrass (criteria 0-5) (Italian ryegrass [14]) | H: barnyard grass, herbicidal effect rating (barnyard grass [15]) | herbicidal effect on F: southern crabgrass (criteria 0-5) (southern crabgrass [16]) | herbicidal effect on G: green foxtail (criteria 0-5) (green foxtail [17]) | herbicidal effect on I: wild oat (criteria 0-5) (wild oat [18]) | M: velvetleaf, herbicidal effect rating (velvetleaf [19]) | O: lambsquarters, herbicidal effect rating (lambsquarters [20]) | also measured
COc1cc(F)ccc1-c1sc2ccc(C(C)=O)cc2c1-c1c(O)c(C)nn(C)c1=O [2-192] | 3 (Herbicidal rate of 40% or more and less than 70%) | 4 (Herbicidal rate of 70% or more and less than 90%) | 2 (Herbicidal rate of 20% or more and less than 40%) | 3 (Herbicidal rate of 40% or more and less than 70%) | 0 (Herbicidal rate of 5% or less (almost no effect)) | 4 (Herbicidal rate of 70% or more and less than 90%) | 3 (Herbicidal rate of 40% or more and less than 70%) | 0 (Herbicidal rate of 5% or less (almost no effect)) | 5 (Herbicidal rate of 90% or more (almost completely withered)) | 0 (Herbicidal rate of 5% or less (almost no effect)) | 4 (Herbicidal rate of 70% or more and less than 90%) | 0 (Herbicidal rate of 5% or less (almost no effect)) | 4 (Herbicidal rate of 70% or more and less than 90%) | 0 (Herbicidal rate of 5% or less (almost no effect)) | 1 (Herbicidal rate of 5% or more and less than 20%) | 4 (Herbicidal rate of 70% or more and less than 90%) | 4 (Herbicidal rate of 70% or more and less than 90%) | 0 (Herbicidal rate of 5% or less (almost no effect)) | 0 (Herbicidal rate of 5% or less (almost no effect)) | 4 (Herbicidal rate of 70% or more and less than 90%) | L: windgrass, herbicidal effect rating (windgrass [21]): 0 (Herbicidal rate of 5% or less (almost no effect)); J: blackgrass, herbicidal effect rating (blackgrass [22]): 0 (Herbicidal rate of 5% or less (almost no effect)); I: wild oat, herbicidal effect rating (wild oat [23]): 0 (Herbicidal rate of 5% or less (almost no effect)); K: Italian ryegrass, herbicidal effect rating (Italian ryegrass [24]): 0 (Herbicidal rate of 5% or less (almost no effect)); herbicidal effect on R: persian speedwell (criteria 0-5) (persian speedwell [25]): 5 (Herbicidal rate of 90% or more (almost completely withered)); herbicidal effect on D: Chinese sprangletop (Chinese sprangletop): 2 (Herbicidal rate of 20% or more and less than 40%); herbicidal effect on E: rice flat sedge (rice flat sedge): 2 (Herbicidal rate of 20% or more and less than 40%)
CCCC(=O)Oc1c(C)nn(C)c(=O)c1-c1c(-c2ccccc2Cl)sc2ccc(F)cc12 [2-204] | 3 (Herbicidal rate of 40% or more and less than 70%) | 4 (Herbicidal rate of 70% or more and less than 90%) | 0 (Herbicidal rate of 5% or less (almost no effect)) | 5 (Herbicidal rate of 90% or more (almost completely withered)) | 0 (Herbicidal rate of 5% or less (almost no effect)) | 0 (Herbicidal rate of 5% or less (almost no effect)) | 0 (Herbicidal rate of 5% or less (almost no effect)) | 3 (Herbicidal rate of 40% or more and less than 70%) | 5 (Herbicidal rate of 90% or more (almost completely withered)) | 3 (Herbicidal rate of 40% or more and less than 70%) | 2 (Herbicidal rate of 20% or more and less than 40%) | 3 (Herbicidal rate of 40% or more and less than 70%) | 4 (Herbicidal rate of 70% or more and less than 90%) | 3 (Herbicidal rate of 40% or more and less than 70%) | 0 (Herbicidal rate of 5% or less (almost no effect)) | 0 (Herbicidal rate of 5% or less (almost no effect)) | 5 (Herbicidal rate of 90% or more (almost completely withered)) | 3 (Herbicidal rate of 40% or more and less than 70%) | 0 (Herbicidal rate of 5% or less (almost no effect)) | 0 (Herbicidal rate of 5% or less (almost no effect)) | L: windgrass, herbicidal effect rating (windgrass [21]): 0 (Herbicidal rate of 5% or less (almost no effect)); J: blackgrass, herbicidal effect rating (blackgrass [22]): 0 (Herbicidal rate of 5% or less (almost no effect)); I: wild oat, herbicidal effect rating (wild oat [23]): 0 (Herbicidal rate of 5% or less (almost no effect)); K: Italian ryegrass, herbicidal effect rating (Italian ryegrass [24]): 0 (Herbicidal rate of 5% or less (almost no effect)); herbicidal effect on R: persian speedwell (criteria 0-5) (persian speedwell [25]): 5 (Herbicidal rate of 90% or more (almost completely withered)); herbicidal effect on D: Chinese sprangletop (Chinese sprangletop): 3 (Herbicidal rate of 40% or more and less than 70%); herbicidal effect on E: rice flat sedge (rice flat sedge): 3 (Herbicidal rate of 40% or more and less than 70%)
